These results are taken from patent US20220259558A1, “METHODS FOR OBTAINING EYE FIELD PROGENITOR CELLS FROM HUMAN PLURIPOTENT STEM CELLS” (Novo Nordisk A/S, priority 2019, published 2022).

The subject of assay [1] is human embryonic stem cells (hESC). Description: Initial attachment of hESC on different laminins after single cell seeding (brightfield). The following applies: after 12 hours; hESC grown and maintained on LN-521, single cell seeding. The format is cell-based. How it is done:
LN-332 can be used for further differentiation.
An internally generated hESC line was maintained on human recombinant laminin (hrLN) coated plates (Biolaminin 521 LN, Biolamina) in NutriStem hPSC XF medium (Biological Industries), in a 5% CO2 incubator at 37° C. and passaged enzymatically at 1:10-1:20 ratio every 3-5 days. For passaging, confluent cultures were washed once with phosphate buffered saline (PBS) without calcium and magnesium ions and incubated for 5 min at 37° C. with TrypLE Select (GIBCO, Thermo Fisher Scientific). The enzyme was then carefully removed and the cells were collected in fresh NutriStem hPSC XF medium by gentle pipetting to obtain single cell suspension and the required volume plated on a freshly hrLN-521 coated dish. After passage, the medium was replaced with fresh prewarmed NutriStem hPSC XF medium and changed daily.
hESC-RPE monolayer differentiation hESC were plated at a cell density of 5.5×10^4 cells/cm2 on hrLN-332 laminin coated dishes at 10 μg/mL (Biolaminin 332 LN, Biolamina) using NutriStem hPSC XF medium. Rho-kinase inhibitor (Y-27632, Millipore) at a concentration of 10 μM was added during the first 24 hours, while cells were kept at 37° C., 5% CO2. After 24 hours, the culture medium was replaced with differentiation medium according to the examples. […]

The test system of assay [2] is hESC. Description: Differentiation of hESC into eye field progenitor cells, marker-positive cells by immunofluorescence. The format is cell-based, human. An excerpt: FIGS. 2A and 2B show the effect of human BMP5 and Activin A on the differentiation of hESC into VSX2 and MITF positive cells. Immunofluorescence showing conditions 1 and 2, without BMP5 or Activin A, with poor levels of MITF or VSX2. In contrast, the addition of BMP5 from day 12 (conditions 3 and 4), increase the number of cells positive for MITF and VSX2. The addition of Activin A from day 15, in combination with BMP5, has no clear additional effect. In contrast, the use of Activin A alone from day 12, or combination with BMP5 from day 15 (conditions 5 and 6), generates a lower number of cells positive for MITF and VSX2. […] The combination of IHH (Indian Hedgehog) and DKK2 (Dickkopf WNT Signaling Pathway Inhibitor 2) might help in the generation of MITF/VSX2 positive cells.
An initial treatment with the small molecule GW788388, NOGGIN and Endo IWR1 for 12 days, followed by a treatment with BMP5, IHH and DKK2 generates high numbers of PAX6/OTX2 double positive cells addressed by immunofluorescence. DAPI is used for nuclear staining of all cells.
The use of BMP5 induces the generation of MITF and VSX2 positive cells (second row), addressed by immunofluorescence, indicating the generation of neural retina progenitor cells. In contrast, the addition of the GSK3 inhibitor CHIR99021 (lower row) drastically blocks the expression of VSX2, and reinforces the expression of MITF and the generation of MITF positive cells with cobblestone morphology. This is indicative of RPE progenitor cells. First row, control without BMP5. DAPI is used for nuclear staining of all cells.
(§1) hESC-RPE monolayer differentiation hESC were plated at a cell density of 5.5×10^4 cells/cm2 on hrLN-332 laminin coated dishes at 10 μg/mL (Biolaminin 332 LN, Biolamina) using NutriStem hPSC XF medium. Rho-kinase inhibitor (Y-27632, Millipore) at a concentration of 10 μM was added during the first 24 hours, while cells were kept at 37° C., 5% CO2. After 24 hours, the culture medium was replaced with differentiation medium according to the examples. The differentiation media “GMEM” in the following examples is always supplemented with Penicillin-Streptomycin solution (20 units/ml; Thermo Fisher), beta-Mercaptoethanol (0.5 mM; Thermo Fisher), Sodium pyruvate (1 mM; Thermo Fisher), Non-Essential Amino Acids (1×; Thermo Fisher).
In order to differentiate hESC into eye progenitor cells, we tested the effect of BMP5 in different conditions in combination with small molecules and recombinant proteins that mimics developmental cues. We relied on sequential activation and/or repression of the common developmental pathways associated to eye development for our differentiation protocol and combined with activation of BMP pathway by BMP5. After cell dissociation, hESC line expanded on LN-521 were dissociated to single cells and seeded on LN-332 for differentiation. These cells adapted well to this laminin.
We decided to explore the inhibition of GSK3 with the small molecule CHIR99021 in combination with BMP5, and to remove the WNT inhibitor Endo IWR1 from the protocol, as GSK3 inhibition might activate canonical (beta-Catenin dependent) WNT signalling.
We decided to explore the effect of another SMAD inhibitor, RepSOX, in combination with NOGGIN, and to combine with BMP5 and CHIR99021 to obtain RPE progenitor cells positive for MITF. This will indicate if different SMAD inhibitors could be used in our BMP5-based protocol.

Assay [3] has as its system hESC. Briefly: RNA (gene) expression analysis of differentiated hESC, real-time PCR. It counts as cell-based, human. The note with it: for induction of gene expression of markers of eye field progenitor cells with a RPE progenitor cell identity: comparison of BMPs, day 7-21, with CHIR99021 day 12-21, single SMAD inhibition. How it is done: The graphs indicate the cycle threshold (CT) values from real-time polymerase chain reaction (PCR). Differentiated cells with BMP5 are collected at day 21 and RNA extracted, converted to cDNA and RNA expression analyses performed. hESC are used as comparison and CT values are inversely proportional to mRNA level.
RNA expression of RPE progenitor cell-related genes was quantified. Note that 200 ng/ml and 1000 ng/ml of BMP5 treatment promote the expression of RPE progenitor genes.
RNA expression of neural retina progenitor genes was quantified. 200 ng/ml and 1000 ng/ml of BMP5 treatment promote the expression of neural retina progenitor cell genes.
The effect of BMP5 is compared to that of BMP4, BMP7 and BMP4/7 heterodimer.
as §1
We analyzed gene expression at day 21 on cells that were generated with the following protocol, […]
(Real-time PCR tracks product formation cycle by cycle.)

Assay [4] has as its system hESC. Description: Protein expression of hESC-derived progenitor cells by flow cytometry. It counts as cell-based, human. The following applies: after 21 days, single SMAD inhibitor (GW788388). How it is done: More than 40% of the cells show co-expression of the markers PAX6/MITF.
More than 50% of the cells show co-expression of the markers PAX6/VSX2.
as §1
In order to provide quantitative data of the cells generated with our BMP5-based protocol, we analysed the eye field progenitor cells generated under treatment with BMP5 for NR progenitor cells or with BMP5 and CHIR99021 for RPE progenitor cells by flow cytometry. Moreover, we tested single SMAD inhibition by removing NOGGIN from the protocol.
On the technique in general: Flow cytometry measures light scatter and fluorescence of single cells or particles in a stream.

Setting [5] is: Example 1, immunofluorescence, factor from day 12 after NOGGIN+GW788388+Endo IWR1, to day 21.

For the molecule “LN-332: human recombinant laminin isoform 332 (Biolaminin 332 LN, Biolamina), coating matrix”, the “initial attachment of hESC” value in assay [1] is “excellent attachment”.
For the molecule “BMP5: human bone morphogenetic protein 5, recombinant protein (R&D systems), SEQ ID NO: 1”, in assay [2] (setting [5]), the “generation of MITF and VSX2-positive cells” value was “generated MITF and VSX2-positive cells”. In assay [2] (Example 2, dual SMAD inhibition (NOGGIN+GW788388), BMP5 from day 7 to day 21), the “generation of MITF and VSX2-positive cells” value is “strongly generated MITF and VSX2-positive cells”. The “generation of double PAX6/OTX2 positive cells” value in assay [2] (immunofluorescence, GW788388, NOGGIN and Endo IWR1 for 12 days, then BMP5, IHH and DKK2) is recorded as “induces the generation of double PAX6/OTX2 positive cells”. For the same molecule, the “best condition (BMP5 concentration) to induce eye field progenitor cells with a RPE progenitor cell identity” value in assay [3] (0, 0.1, 200 and 1000 ng/ml tested, day 7-21, with CHIR99021 day 12-21, gene expression day 21) amounted to 200 ng/mL. Further, the “best condition (BMP5 concentration) to generate eye field progenitor cells with a NR progenitor cell identity” value in assay [3] (0, 0.1, 200 and 1000 ng/ml tested, day 7-21, VSX2 gene expression day 21) was found to be 200 ng/mL. In addition, in assay [3] (BMP5 at 1000 ng/ml), the “effect on generation of eye field progenitor cells” value is “positive but milder effect”. Further, the “induction of gene expression of markers of eye field progenitor cells with a RPE progenitor cell identity” value (“induction” below) in assay [3] was “superior effect”. For the same molecule, the “MITF, PAX6 and VSX2 mRNA levels” value in assay [3] (day 21, CT values, compared to hESC) is on record as “increased compared to hESC”. In assay [4], the PAX6-positive cells entry is recorded as “more than 95%” and the “double positive cells PAX6/VSX2” value is “more than 50%”.

B1: Activin A: Recombinant protein (R&D systems/Peprotech) (protein, UniProt P08476 311-426, looked up)
Inhibin beta A chain: GLECDGKVNICCKKQFFVSFKDIGWNDWIIAPSGYHANYCEGECPSHIAGTSGSSLSFHSTVINHYRMRGHSPFANLKSCCVPTKLRPMSMLYYDDGQNIIKKDIQNMIVEECGCS
modifications: Inhibin beta A chain
Take B1: the “generation of MITF and VSX2-positive cells” value in assay [2] (setting [5]) is reported as “negative effect”.

B2: BMP4: member of the BMP family compared to BMP5 (protein, UniProt P12644 293-408, looked up)
Bone morphogenetic protein 4: SPKHHSQRARKKNKNCRRHSLYVDFSDVGWNDWIVAPPGYQAFYCHGDCPFPLADHLNSTNHAIVQTLVNSVNSSIPKACCVPTELSAISMLYLDEYDKVVLKNYQEMVVEGCGCR
B2: the “induction” value in assay [3] is reported as “least capacity to induce these markers”.

B3: DKK2: Dickkopf WNT Signaling Pathway Inhibitor 2, recombinant protein (protein, UniProt Q9UBU2 34-259, looked up)
Dickkopf-related protein 2: KLNSIKSSLGGETPGQAANRSAGMYQGLAFGGSKKGKNLGQAYPCSSDKECEVGRYCHSPHQGSSACMVCRRKKKRCHRDGMCCPSTRCNNGICIPVTESILTPHIPALDGTRHRDRNHGHYSNHDLGWQNLGRPHTKMSHIKGHEGDPCLRSSDCIEGFCCARHFWTKICKPVLHQGEVCTKQRKKGSHGLEIFQRCDCAKGLSCKVWKDATYSSKARLHVCQKI
Regarding B3, the “generation of MITF and VSX2-positive cells” value in assay [2] (setting [5]) was “not sufficient to generate MITF or VSX2-positive cells”.

B4: BMP7: member of the BMP family compared to BMP5 (protein, UniProt P18075 293-431, looked up)
Bone morphogenetic protein 7: STGSKQRSQNRSKTPKNQEALRMANVAENSSSDQRQACKKHELYVSFRDLGWQDWIIAPEGYAAYYCEGECAFPLNSYMNATNHAIVQTLVHFINPETVPKPCCAPTQLNAISVLYFDDSSNVILKKYRNMVVRACGCH
Regarding B4, the “induction” value in assay [3] is recorded as “better than BMP4”.
